# Data taken from patent US6737383B1, “Herbicidal oxadiazolidines” (priority 1999, dated 2004).
# What was measured:
# velvetleaf = assay: Test B pre/postemergence velvetleaf; type: in vivo, Abutilon theophrasti; conditions: for Plant response rating, Velvetleaf: Rate 250 g/ha
# How it was run: (§1)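 Response is a visual 0-to-10 score relative to untreated plants, where 0 means no effect and 10 means complete control, taken twelve to sixteen days after application. Treatments went onto soil at planting and onto foliage of 1- to 4-leaf plants, using a surfactant-containing non-phytotoxic solvent.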
# pigweed = assay: Test B pre/postemergence pigweed; type: in vivo, Amaranthus retroflexus
# How it was run: as §1
# morningglory = assay: Test B pre/postemergence morningglory; type: in vivo, Ipomoea hederacea
# How it was run: as §1
# cocklebur = assay: Test B pre/postemergence cocklebur; type: in vivo, Xanthium strumarium
# How it was run: as §1
# rice = assay: Test B flood test rice; type: in vivo, Oryza sativa
# How it was run: (§2)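 Read-out is a visual response score from 0 (no effect) to 10 (complete control), assigned by comparison with untreated controls. Treatment was applied at the 2-leaf stage, and plants stayed in the greenhouse for twelve to sixteen days before scoring.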
# blackgrass = assay: Test B pre/postemergence blackgrass; type: in vivo, Alopecurus myosuroides
# How it was run: as §1
# sugar beet = assay: Test B pre/postemergence sugar beet; type: in vivo, Beta vulgaris; conditions: for Plant response rating, Sugarbeets: Rate 250 g/ha
# How it was run: as §1
# wheat = assay: Test B pre/postemergence wheat; type: in vivo, Triticum aestivum; conditions: for Plant response rating, Wheat: Rate 250 g/ha
# How it was run: as §1
# smallflower flatsedge = assay: Test B flood test smallflower flatsedge; type: in vivo, Cyperus difformis
# How it was run: as §2
# giant foxtail = assay: Test B pre/postemergence giant foxtail; type: in vivo, Setaria faberii
# How it was run: as §1
# rape = assay: Test B pre/postemergence rape; type: in vivo, Brassica napus
# How it was run: as §1
# purple nutsedge = assay: Test B pre/postemergence purple nutsedge; type: in vivo, Cyperus rotundus
# How it was run: as §1
# soybean = assay: Test B pre/postemergence soybean; type: in vivo, Glycine max
# How it was run: as §1
# wild oat = assay: Test B pre/postemergence wild oat; type: in vivo, Avena fatua; conditions: for Plant response rating, Wild oats: Rate 250 g/ha
# How it was run: as §1
# bamyardgrass = assay: Test B flood test barnyardgrass; type: in vivo, Echinochloa crus-galli
# How it was run: as §2
# duck salad = assay: Test B flood test duck salad; type: in vivo, Heteranthera limosa
# How it was run: as §2
# [1] = Postemergence, Rate 125 g/ha, scale of 0 to 10 where 0 is no effect and 10 is complete control
# [2] = Preemergence, Rate 62 g/ha, scale 0 to 10 (0 no effect, 10 complete control)
# [3] = Preemergence, Rate 125 g/ha, 0 is no effect, 10 is complete control
# [4] = Preemergence, scale of 0 to 10 where 0 is no effect and 10 is complete control
# [5] = Preemergence, Rate 500 g/ha, scale 0 to 10 (0 no effect, 10 complete control)
# [6] = Rate 62 g/ha, Postemergence, scale of 0 to 10 where 0 is no effect and 10 is complete control
# [7] = Postemergence, scale 0 to 10, 0 is no effect, 10 is complete control
# [8] = Rate 500 g/ha, Postemergence, scale 0 to 10, 0 no effect, 10 complete control
# [9] = Preemergence, Rate 125 g/ha, scale 0 to 10 (0 no effect, 10 complete control)
# [10] = Preemergence, Rate 250 g/ha, scale of 0 to 10 where 0 is no effect and 10 is complete control
# [11] = Rate 250 g/ha, Postemergence, scale 0 to 10, 0 is no effect, 10 is complete control
# [12] = Postemergence, Rate 250 g/ha, scale 0 to 10, 0 no effect, 10 complete control
# [13] = Postemergence (flood test species), Rate 125 g/ha, scale of 0 to 10 where 0 is no effect and 10 is complete control
# [14] = Rate 62 g/ha, Postemergence section, flood test species, scale of 0 to 10 where 0 is no effect and 10 is complete control
# [15] = Rate 250 g/ha, Postemergence (flood test), scale 0 to 10, 0 is no effect, 10 is complete control
# [16] = Rate 250 g/ha, headed Pre-emergence (flood test species), scale 0 to 10 (0 no effect, 10 complete control)
# [17] = Rate 500 g/ha, headed Pre-emergence (flood test species), scale 0 to 10 (0 no effect, 10 complete control)
# [18] = Rate 500 g/ha, listed under Postemergence (flood test species), scale 0 to 10, 0 no effect, 10 complete control
# [19] = Rate 1000 g/ha, Pre-emergence (as headed), scale 0 to 10
# [20] = Rate 2000 g/ha, Pre-emergence (as headed), scale 0 to 10
# [21] = flood test, listed under Postemergence, Rate 250 g/ha, scale 0 to 10, 0 no effect, 10 complete control
smiles,measurement,setting,value
CC(C)N(C(=O)n1oc(=O)n(C(C)C)c1=O)c1ccccc1 [Compound 113],Velvetleaf plant response rating,velvetleaf; [1],1
same,Velvetleaf plant response rating,velvetleaf; [2],6
same,Velvetleaf plant response rating (0 to 10 scale),velvetleaf; [3],7
same,"Plant response rating, Velvetleaf",velvetleaf; [4],8
same,Velvetleaf plant response rating,velvetleaf; [5],8
same,Velvetleaf plant response rating,velvetleaf; [6],0
same,"Plant response rating, Velvetleaf",velvetleaf; [7],7
same,Velvetleaf plant response rating,velvetleaf; [8],8
same,Redroot pigweed plant response rating,pigweed; [1],4
same,Redroot pigweed plant response rating,pigweed; [2],8
same,"Plant response rating, Redroot pigweed",pigweed; [9],8
same,"Plant response rating, Redroot pigweed",pigweed; [10],10
same,Redroot pigweed plant response rating,pigweed; [5],10
same,Redroot pigweed plant response rating,pigweed; [6],3
same,"Plant response rating, Redroot pigweed",pigweed; [11],6
same,Redroot pigweed plant response rating,pigweed; [8],7
same,Morningglory plant response rating,morningglory; [1],5
same,Morningglory plant response rating,morningglory; [12],8
same,Morningglory plant response rating,morningglory; [2],1
same,"Plant response rating, Morningglory",morningglory; [9],2
same,"Plant response rating, Morningglory",morningglory; [10],7
same,Morningglory plant response rating,morningglory; [5],8
same,Morningglory plant response rating,morningglory; [6],5
same,Morningglory plant response rating,morningglory; [8],10
same,Cocklebur plant response rating,cocklebur; [1],1
same,Cocklebur plant response rating,cocklebur; [12],1
same,Cocklebur plant response rating,cocklebur; [2],0
same,"Plant response rating, Cocklebur",cocklebur; [9],1
same,"Plant response rating, Cocklebur",cocklebur; [10],3
same,Cocklebur plant response rating,cocklebur; [5],3
same,Cocklebur plant response rating,cocklebur; [6],1
same,Cocklebur plant response rating,cocklebur; [8],4
same,Rice plant response rating,rice; [13],0
same,Rice plant response rating,rice; [14],0
same,"Plant response rating, Rice",rice; [15],0
same,Rice plant response rating,rice; [16],0
same,"Plant response rating, Rice",rice; [17],0
same,Rice plant response rating,rice; [18],0
same,Rice plant response rating,rice; [19],0
same,Rice plant response rating,rice; [20],7
same,Blackgrass plant response rating,blackgrass; [1],8
same,Blackgrass plant response rating,blackgrass; [12],8
same,Blackgrass plant response rating,blackgrass; [2],8
same,"Plant response rating, Blackgrass",blackgrass; [9],9
same,"Plant response rating, Blackgrass",blackgrass; [10],10
same,Blackgrass plant response rating,blackgrass; [5],10
same,Blackgrass plant response rating,blackgrass; [6],8
same,Blackgrass plant response rating,blackgrass; [8],8
same,Sugarbeets plant response rating,sugar beet; [1],4
same,Sugarbeets plant response rating,sugar beet; [2],7
same,Sugarbeets plant response rating (0 to 10 scale),sugar beet; [3],8
same,"Plant response rating, Sugarbeets",sugar beet; [4],9
same,Sugarbeets plant response rating,sugar beet; [5],10
same,Sugarbeets plant response rating,sugar beet; [6],4
same,"Plant response rating, Sugarbeets",sugar beet; [7],5
same,Sugarbeets plant response rating,sugar beet; [8],6
same,Wheat plant response rating,wheat; [1],3
same,Wheat plant response rating,wheat; [2],2
same,Wheat plant response rating (0 to 10 scale),wheat; [3],4
same,"Plant response rating, Wheat",wheat; [4],7
same,Wheat plant response rating,wheat; [5],8
same,Wheat plant response rating,wheat; [6],1
same,"Plant response rating, Wheat",wheat; [7],4
same,Wheat plant response rating,wheat; [8],6
same,S. Flatsedge plant response rating,smallflower flatsedge; [13],0
same,S. Flatsedge plant response rating,"smallflower flatsedge; Pre-emergence, Rate 1000 g/ha, scale 0 to 10 (0 no effect, 10 complete control)",0
same,S. Flatsedge plant response rating,smallflower flatsedge; [14],0
same,"Plant response rating, S. Flatsedge",smallflower flatsedge; [15],0
same,S. Flatsedge plant response rating,smallflower flatsedge; [16],0
same,"Plant response rating, S. Flatsedge",smallflower flatsedge; [17],0
same,S. Flatsedge plant response rating,smallflower flatsedge; [18],0
same,S. Flatsedge plant response rating,smallflower flatsedge; [20],9
same,Giant foxtail plant response rating,giant foxtail; [1],9
same,Giant foxtail plant response rating,giant foxtail; [12],9
same,Giant foxtail plant response rating,giant foxtail; [2],9
same,"Plant response rating, Giant foxtail",giant foxtail; [9],10
same,"Plant response rating, Giant foxtail",giant foxtail; [10],10
same,Giant foxtail plant response rating,giant foxtail; [5],10
same,Giant foxtail plant response rating,giant foxtail; [6],9
same,Giant foxtail plant response rating,giant foxtail; [8],9
same,Rape plant response rating,rape; [1],3
same,Rape plant response rating,rape; [12],7
same,Rape plant response rating,rape; [2],4
same,"Plant response rating, Rape",rape; [9],7
same,"Plant response rating, Rape",rape; [10],10
same,Rape plant response rating,rape; [5],10
same,Rape plant response rating,rape; [6],0
same,Rape plant response rating,rape; [8],7
same,Nutsedge plant response rating,purple nutsedge; [1],0
same,Nutsedge plant response rating,purple nutsedge; [12],0
same,Nutsedge plant response rating,purple nutsedge; [2],0
same,"Plant response rating, Nutsedge",purple nutsedge; [9],0
same,"Plant response rating, Nutsedge",purple nutsedge; [10],0
same,Nutsedge plant response rating,purple nutsedge; [5],0
same,Nutsedge plant response rating,purple nutsedge; [6],0
same,Nutsedge plant response rating,purple nutsedge; [8],2
same,Soybean plant response rating,soybean; [1],6
same,Soybean plant response rating,soybean; [2],3
same,"Plant response rating, Soybean",soybean; [9],8
same,"Plant response rating, Soybean",soybean; [10],9
same,Soybean plant response rating,soybean; [5],9
same,Soybean plant response rating,soybean; [6],6
same,"Plant response rating, Soybean",soybean; [11],7
same,Soybean plant response rating,soybean; [8],7
same,Wild oats plant response rating,wild oat; [1],2
same,Wild oats plant response rating,wild oat; [2],6
same,Wild oats plant response rating (0 to 10 scale),wild oat; [3],10
same,"Plant response rating, Wild oats",wild oat; [4],10
same,Wild oats plant response rating,wild oat; [5],10
same,Wild oats plant response rating,wild oat; [6],1
same,"Plant response rating, Wild oats",wild oat; [7],6
same,Wild oats plant response rating,wild oat; [8],6
same,Barnyardgrass plant response rating,"bamyardgrass; Postemergence, Rate 62 g/ha, scale 0 to 10, 0 is no effect, 10 is complete control",0
same,Barnyardgrass plant response rating,"bamyardgrass; Rate 125 g/ha, Postemergence section (flood test species), scale 0 to 10, 0 no effect, 10 complete control",0
same,Barnyardgrass plant response rating,bamyardgrass; [16],0
same,"Plant response rating, Barnyardgrass",bamyardgrass; [17],0
same,Barnyardgrass plant response rating,bamyardgrass; [18],0
same,Barnyardgrass plant response rating,bamyardgrass; [19],0
same,Barnyardgrass plant response rating,"bamyardgrass; Rate 2000 g/ha, Pre-emergence (as headed), scale 0 to 10, 0 no effect, 10 complete control",9
same,Barnyardgrass plant response rating,bamyardgrass; [21],0
same,Ducksalad plant response rating,duck salad; [13],0
same,Ducksalad plant response rating,duck salad; [14],0
same,Ducksalad plant response rating,duck salad; [16],0
same,"Plant response rating, Ducksalad",duck salad; [17],0
same,Ducksalad plant response rating,duck salad; [18],0
same,Ducksalad plant response rating,duck salad; [19],1
same,Ducksalad plant response rating,duck salad; [20],8
same,Ducksalad plant response rating,duck salad; [21],0
